From the supplement of paper PMC13380429

Legend:
Conditions in all cases: 72 h
HepG2 [1] = experiment: relative viability EC50 (midpoint between 100% and the lowest measured viability); higher = less toxic
Vero E6 [2] = experiment: as above
U2OS [3] = experiment: as above
Calu-3 [4] = experiment: as above
Caco-2 [5] = experiment: as above
HepG2 [6] = experiment: cell viability relative to DMSO; higher = less toxic
Vero E6 [7] = experiment: as above
U2OS [8] = experiment: as above
Calu-3 [9] = experiment: as above
Caco-2 [10] = experiment: as above
HepG2 [11] = experiment: drug sensitivity score (DSS) for viability; higher = more toxic; extreme values may be limits of the assay
Vero E6 [12] = experiment: as above
U2OS [13] = experiment: as above
Calu-3 [14] = experiment: as above
Caco-2 [15] = experiment: as above

Structure (SMILES)	relative viability EC50 (HepG2 [1]) [µM]	relative viability EC50 (Vero E6 [2]) [µM]	relative viability EC50 (U2OS [3]) [µM]	relative viability EC50 (Calu-3 [4]) [µM]	relative viability EC50 (Caco-2 [5]) [µM]	cell viability (HepG2 [6]; 1 nM) [%]	cell viability (HepG2 [6]; 10 nM) [%]	cell viability (HepG2 [6]; 100 nM) [%]	cell viability (HepG2 [6]; 1000 nM) [%]	cell viability (HepG2 [6]; 10000 nM) [%]	cell viability (Vero E6 [7]; 1 nM) [%]	cell viability (Vero E6 [7]; 10 nM) [%]	cell viability (Vero E6 [7]; 100 nM) [%]	cell viability (Vero E6 [7]; 1000 nM) [%]	cell viability (Vero E6 [7]; 10000 nM) [%]	cell viability (U2OS [8]; 1 nM) [%]	cell viability (U2OS [8]; 10 nM) [%]	cell viability (U2OS [8]; 100 nM) [%]	cell viability (U2OS [8]; 1000 nM) [%]	cell viability (U2OS [8]; 10000 nM) [%]	cell viability (Calu-3 [9]; 1 nM) [%]	cell viability (Calu-3 [9]; 10 nM) [%]	cell viability (Calu-3 [9]; 100 nM) [%]	cell viability (Calu-3 [9]; 1000 nM) [%]	cell viability (Calu-3 [9]; 10000 nM) [%]	cell viability (Caco-2 [10]; 1 nM) [%]	cell viability (Caco-2 [10]; 10 nM) [%]	cell viability (Caco-2 [10]; 100 nM) [%]	cell viability (Caco-2 [10]; 1000 nM) [%]	cell viability (Caco-2 [10]; 10000 nM) [%]	drug sensitivity score (HepG2 [11])	drug sensitivity score (Vero E6 [12])	drug sensitivity score (U2OS [13])	drug sensitivity score (Calu-3 [14])	drug sensitivity score (Caco-2 [15])
O=C(O)c1cc(O)c(O)c(O)c1 [gallic-acid]	> 10	> 10	> 10	> 10	> 10	100	94.8	102	91.4	79.6	99.1	92.4	95	106	102	99.4	94.8	96.5	97.3	106	85.4	93	96.4	102	102	104	89.2	109	96.7	101	1.6	0	0	0	0
CCN(CC)Cc1ccc2cc(COC(=O)Nc3ccc(C(=O)NO)cc3)ccc2c1 [givinostat]	0.327	0.653	0.561	0.263	0.686	99.8	102	80.9	20.4	0.1	94.7	97.7	96.7	31.6	-0.1	99.6	93.2	92.7	30.8	0.6	88.3	94.6	77.1	30.8	12.9	97.8	89.7	93.2	38.4	0.8	17	13.8	14.3	15.6	13.1
COc1ccc2c(c1)C(=O)N(CCc1ccc(S(=O)(=O)NC(=O)NC3CCCCC3)cc1)C(=O)C2(C)C [gliquidone]	> 10	> 10	> 10	> 10	> 10	103	98.9	96.4	106	106	97.8	99.5	92.3	100	94.9	91	89.3	102	87.1	95.9	106	96.5	99.9	104	106	88.1	95.3	109	102	101	0	0	0	0	0
C[N+]1(C)CCC(OC(=O)C(O)(c2ccccc2)C2CCCC2)C1 (stereo not given) [glycopyrrolate]	> 10	> 10	> 10	> 10	> 10	108	99.3	97.4	92.3	105	106	100	100	99.7	98.3	101	102	98	99.5	95.1	102	105	97.7	102	98.5	104	98.6	94.8	103	96	0	0	0	0	0
COC1=CC(=O)C[C@@H](C)[C@]12Oc1c(Cl)c(OC)cc(OC)c1C2=O [griseofulvin]	> 10	> 10	> 10	> 10	> 10	86.3	95.5	95.6	101	90	104	98.8	91.1	107	94.8	102	100	102	98.8	96.2	106	95.7	98	107	108	106	88.5	93.6	103	88.1	0	0	0	0	0
O=C(O)C1=CCCNC1 [guvacine]	> 10	> 10	> 10	> 10	> 10	102	97	96.3	100	105	100	101	98	104	97.5	105	98.9	102	96.5	102	106	99	102	88.2	92.2	99.7	85.6	102	102	96.5	0	0	0	0.4	0
Cc1nccc2c1[nH]c1ccccc12 [harmane]	> 10	> 10	> 10	> 10	> 10	92.9	96.2	99.6	99.1	105	97.2	102	94.3	96.6	98.2	101	98.8	100	97.5	101	106	97.7	101	91.8	103	95.1	101	105	102	93	0	0	0	0	0
CC(N)CCCC(C)(C)O (stereo not given) [heptaminol]	> 10	> 10	> 10	> 10	> 10	106	96.3	102	95.6	104	95.1	95.7	97.3	94.3	104	95.1	97.7	98.1	103	105	94.4	144	103	101	94.2	90.3	91.7	96.7	107	106	0	0	0	0	0
CCCCCCOC(=O)CCC(=O)CN [hexaminolevulinate]	> 10	> 10	> 10	> 10	> 10	111	105	99	102	101	109	98	104	99.2	99.5	100	102	98.1	103	98.4	93.9	101	111	108	104	102	93.7	101	104	96.6	0	0	0	0	0
C[N+]1(C)[C@@H]2CC[C@H]1C[C@@H](OC(=O)C(O)c1ccccc1)C2 (stereo not given in full) [homatropine-methylbromide]	> 10	> 10	> 10	> 10	> 10	98.7	95.3	102	91.8	98.9	101	97.5	106	108	98.8	96.7	101	95.2	102	96.4	105	108	114	94.2	102	100	90.8	99.7	106	84.2	0	0	0	0	0.2
Oc1ccc(O)cc1 [hydroquinone]	> 10	> 10	> 10	> 10	> 10	106	92.4	94.7	100	84.6	93.3	100	94.8	105	111	95.2	91	95.4	89	117	90.5	90	93.7	100	113	100	97.6	94.2	104	106	0.3	0	0	0	0
O=C(/C=C/c1ccc2c(c1)OCO2)N1CCCCC1 [ilepcimide]	> 10	> 10	> 10	> 10	> 10	102	97.2	106	112	103	91	98.1	94.2	96.6	97.7	98.2	94.6	98.3	95.8	97.1	99.5	108	106	102	102	96.3	104	106	130	102	0	0	0	0	0
Cn1cc(C[C@@H](N)C(=O)O)c2ccccc21 [indoximod]	> 10	> 10	> 10	> 10	> 10	114	97.6	102	118	101	104	95.4	91.6	101	102	102	97	102	99.4	103	107	98.7	96.3	103	106	94.5	83.8	81.7	91.7	104	0	0	0	0	0.1
CCC(NC(C)C)C(O)c1ccc(O)c(O)c1 (stereo not given) [isoetharine]	> 10	> 10	> 10	> 10	> 10	102	96.7	104	101	102	93.1	91.8	92.9	91.9	102	90.2	97.3	95.1	95.4	94	108	98.9	88.4	103	95.6	85.9	100	118	102	104	0	0	0	0	0
O=C(c1ccc(F)cc1)C1CCN(CCn2c(=O)[nH]c3ccccc3c2=O)CC1 [ketanserin]	> 10	> 10	> 10	> 10	> 10	102	95	97.3	102	97.2	96.9	94.9	97.8	101	103	90	98.3	96.1	103	106	96.2	95.8	90.3	92.9	102	93.1	100	95.6	99.7	96.9	0	0	0	0	0
Cc1ncc(OC[C@@]2(c3cccc(F)c3)C[C@H]2C(=O)Nc2ccc(F)cn2)c(C)n1 [lemborexant]	> 10	> 10	> 10	> 10	> 10	97.1	103	97.8	97.9	97.3	97.4	98.1	96.8	101	96.2	100	100	96	101	98.1	100	100	97.6	99.6	106	94.9	97.5	89.6	94.5	100	0	0	0	0	0
CNC(=N)NC(=O)Nc1c(C)cccc1C [lidamidine]	> 10	> 10	> 10	> 10	> 10	101	89.3	106	104	108	99.6	96	97.7	102	105	98.6	100	97.7	99.5	100	103	102	96.2	88.7	104	90.4	99	91.9	95.3	92.5	0	0	0	0	0
CCn1cc(C(=O)O)c(=O)c2cc(F)c(N3CCNC(C)C3)c(F)c21 (stereo not given) [lomefloxacin]	> 10	> 10	> 10	> 10	> 10	114	111	120	102	94.1	105	103	98.8	106	95.3	105	98.3	102	104	104	95.8	96.8	108	80.1	94.6	107	103	108	91.2	104	0	0	0	2.4	0
C/C(=C\C(=O)OCCCCCCCCC(=O)O)C[C@@H]1OC[C@H](C[C@@H]2O[C@H]2[C@@H](C)[C@H](C)O)[C@@H](O)[C@H]1O [mupirocin]	> 10	> 10	> 10	> 10	> 10	104	100	100	100	92.2	97	102	95.4	97.3	97.1	104	99.7	99.3	94.7	99.8	106	104	102	90.8	109	99.9	107	95.2	98	102	0	0	0	0	0
COc1c(C)c2c(c(O)c1C/C=C(\C)CCC(=O)O)C(=O)OC2 [mycophenolic-acid]	0.686	1.29	1.03	0.814	1.13	101	95.7	95.2	57.5	31.8	96.1	103	96.2	75.2	34.2	98.3	102	94.7	62.6	21.9	96.3	96.2	97.2	71.3	49.5	93.1	102	103	77.5	47	9	6.7	8.7	6	5.8
C=C1CC[C@@]2(O)[C@H]3Cc4ccc(O)c5c4[C@@]2(CCN3CC2CC2)[C@H]1O5 [nalmefene]	> 10	> 10	> 10	> 10	> 10	102	95.3	110	95.1	113	106	96.9	96.8	98.3	107	95.6	98.6	93.7	99.4	106	96.6	97.5	106	88.6	103	95.5	94.6	93.8	102	99.3	0	0	0	0	0
CC(C)(C)NCc1cc(Nc2ccnc3cc(Cl)ccc23)c2c(c1O)CCCC2 [naphthoquine-phosphate]	> 10	> 10	> 10	> 10	> 10	106	106	106	99.6	98.6	106	110	108	99.3	93.5	96.3	96.6	103	95.9	98.1	96.3	98	101	91	109	108	99.7	98.5	99.6	83	0	0	0	0	0.4
CC(C)(C)C(=O)CN1C(=O)[C@H](NC(=O)Nc2cccc(C(=O)O)c2)CN(C2CCCCC2)c2ccccc21 [nastorazepide]	> 10	> 10	> 10	> 10	> 10	99.9	106	96.7	108	95.9	104	105	99.2	105	98.8	100	96.7	103	96.5	100	96.7	104	113	98.8	118	96.6	95.4	93.1	92.7	95.8	0	0	0	0	0
